Source: ChEMBL document CHEMBL3792365, “Dioxol and dihydrodioxin analogs of 2- and 3-phenylacetonitriles as potent anti-cancer agents with nanomolar activity against a variety of human cancer cells” (2016)

Columns and labels:
Format in all cases: functional
[1] = Growth inhibition of human SF539 cells at 10 uM after 48 hrs by sulforhodamine B assay; conditions: SF-539, 48 h, values are per cent of control
[2] = Growth inhibition of human OVCAR8 cells at 10 uM after 48 hrs by sulforhodamine B assay; conditions: OVCAR-8, 48 h, values are per cent of control
[3] = Growth inhibition of human UACC62 cells at 10 uM after 48 hrs by sulforhodamine B assay; conditions: UACC-62, 48 h, values are per cent of control
A498 = experiment: Growth inhibition of human A498 cells at 10 uM after 48 hrs by sulforhodamine B assay; conditions: A498, 48 h, values are per cent of control
[4] = Growth inhibition of human HCT116 cells at 10 uM after 48 hrs by sulforhodamine B assay; conditions: HCT-116, 48 h, values are per cent of control
[5] = Growth inhibition of human LOXIMVI cells at 10 uM after 48 hrs by sulforhodamine B assay; conditions: LOX IMVI, values are per cent of control
SK-MEL-5 = experiment: Growth inhibition of human SK-MEL-5 cells at 10 uM after 48 hrs by sulforhodamine B assay; conditions: SK-MEL-5, 48 h, values are per cent of control
NCI-H322M = experiment: Growth inhibition of human NCI-H322M cells at 10 uM after 48 hrs by sulforhodamine B assay; conditions: values are per cent of control
NCI-H226 = experiment: Growth inhibition of human NCI-H226 cells at 10 uM after 48 hrs by sulforhodamine B assay; conditions: NCI-H226, 48 h, values are per cent of control
[6] = Growth inhibition of human Caki1 cells at 10 uM after 48 hrs by sulforhodamine B assay; conditions: CAKI-1, 48 h, values are per cent of control
[7] = Growth inhibition of human HCT15 cells at 10 uM after 48 hrs by sulforhodamine B assay; conditions: HCT-15, 48 h, values are per cent of control
M14 = experiment: Growth inhibition of human M14 cells at 10 uM after 48 hrs by sulforhodamine B assay; conditions: M14, 48 h, values are per cent of control
ACHN = experiment: Growth inhibition of human ACHN cells at 10 uM after 48 hrs by sulforhodamine B assay; conditions: values are per cent of control
[8] = Growth inhibition of human BT549 cells at 10 uM after 48 hrs by sulforhodamine B assay; conditions: BT-549, 48 h, values are per cent of control
[9] = Growth inhibition of human SW620 cells at 10 uM after 48 hrs by sulforhodamine B assay; conditions: SW-620, 48 h, values are per cent of control
SR = experiment: Growth inhibition of human SR cells at 10 uM after 48 hrs by sulforhodamine B assay; conditions: values are per cent of control
NCI-H460 = experiment: Growth inhibition of human NCI-H460 cells at 10 uM after 48 hrs by sulforhodamine B assay; conditions: NCI-H460, 48 h, values are per cent of control
[10] = Growth inhibition of human OVCAR4 cells at 10 uM after 48 hrs by sulforhodamine B assay; conditions: OVCAR-4, 48 h, values are per cent of control
[11] = Growth inhibition of human HOP62 cells at 10 uM after 48 hrs by sulforhodamine B assay; conditions: HOP-62, 48 h, values are per cent of control
SN12C = experiment: Growth inhibition of human SN12C cells at 10 uM after 48 hrs by sulforhodamine B assay; conditions: values are per cent of control
KM12 = experiment: Growth inhibition of human KM12 cells at 10 uM after 48 hrs by sulforhodamine B assay; conditions: KM12, 48 h, values are per cent of control
[12] = Growth inhibition of human UO31 cells at 10 uM after 48 hrs by sulforhodamine B assay; conditions: UO-31, 48 h, values are per cent of control
786-0 = experiment: Growth inhibition of human 786-0 cells at 10 uM after 48 hrs by sulforhodamine B assay; conditions: 786-0, 48 h, values are per cent of control
SK-MEL-2 = experiment: Growth inhibition of human SK-MEL-2 cells at 10 uM after 48 hrs by sulforhodamine B assay; conditions: SK-MEL-2, 48 h, values are per cent of control
MDA-MB-231 = experiment: Growth inhibition of human MDA-MB-231 cells at 10 uM after 48 hrs by sulforhodamine B assay; conditions: MDA-MB-231, 48 h, values are per cent of control
[13] = Growth inhibition of human Hs 578T cells at 10 uM after 48 hrs by sulforhodamine B assay; conditions: values are per cent of control
A549 = experiment: Growth inhibition of human A549/ATCC cells at 10 uM after 48 hrs by sulforhodamine B assay; conditions: A549, 48 h, values are per cent of control
[14] = Growth inhibition of human OVCAR5 cells at 10 uM after 48 hrs by sulforhodamine B assay; conditions: OVCAR-5, 48 h, values are per cent of control
[15] = Growth inhibition of human SF295 cells at 10 uM after 48 hrs by sulforhodamine B assay; conditions: SF-295, 48 h, values are per cent of control
[16] = Growth inhibition of human RXF393 cells at 10 uM after 48 hrs by sulforhodamine B assay; conditions: RXF 393, 48 h, values are per cent of control
[17] = Growth inhibition of human IGROV1 cells at 10 uM after 48 hrs by sulforhodamine B assay; conditions: IGROV-1, 48 h, values are per cent of control
SK-MEL-28 = experiment: Growth inhibition of human SK-MEL-28 cells at 10 uM after 48 hrs by sulforhodamine B assay; conditions: SK-MEL-28, 48 h, values are per cent of control
[18] = Growth inhibition of human SNB19 cells at 10 uM after 48 hrs by sulforhodamine B assay; conditions: SNB-19, 48 h, values are per cent of control
NCI-H23 = experiment: Growth inhibition of human NCI-H23 cells at 10 uM after 48 hrs by sulforhodamine B assay; conditions: NCI-H23, 48 h, values are per cent of control
[19] = Growth inhibition of human SNB75 cells at 10 uM after 48 hrs by sulforhodamine B assay; conditions: SNB-75, 48 h, values are per cent of control
[20] = Growth inhibition of human DU145 cells at 10 uM after 48 hrs by sulforhodamine B assay; conditions: DU-145, 48 h, values are per cent of control
HT-29 = experiment: Growth inhibition of human HT-29 cells at 10 uM after 48 hrs by sulforhodamine B assay; conditions: HT-29, 48 h, values are per cent of control
[21] = Growth inhibition of human COLO205 cells at 10 uM after 48 hrs by sulforhodamine B assay; conditions: COLO 205, 48 h, values are per cent of control
K562 = experiment: Growth inhibition of human K562 cells at 10 uM after 48 hrs by sulforhodamine B assay; conditions: K562, 48 h, values are per cent of control
MDA-MB-435 = experiment: Growth inhibition of human MDA-MB-435 cells at 10 uM after 48 hrs by sulforhodamine B assay; conditions: MDA-MB-435, 48 h, values are per cent of control

## N#C/C(=C\c1ccsc1)c1ccc2c(c1)OCO2
[1]
  growth, % of control at 10 µM: 105%
[2]
  growth, % of control at 10 µM: 90.8%
[3]
  growth, % of control at 10 µM: 106%
A498
  growth, % of control at 10 µM: 103%
[4]
  growth, % of control at 10 µM: 102%
[5]
  growth, % of control at 10 µM: 112%
SK-MEL-5
  growth, % of control at 10 µM: 102%
NCI-H322M
  growth, % of control at 10 µM: 90.6%
NCI-H226
  growth, % of control at 10 µM: 101%
[6]
  growth, % of control at 10 µM: 97.3%
[7]
  growth, % of control at 10 µM: 107%
M14
  growth, % of control at 10 µM: 105%
ACHN
  growth, % of control at 10 µM: 112%
[8]
  growth, % of control at 10 µM: 96.5%
[9]
  growth, % of control at 10 µM: 109%
SR
  growth, % of control at 10 µM: 86.5%
NCI-H460
  growth, % of control at 10 µM: 104%
[10]
  growth, % of control at 10 µM: 91%
[11]
  growth, % of control at 10 µM: 94.5%
SN12C
  growth, % of control at 10 µM: 104%
KM12
  growth, % of control at 10 µM: 94.6%
[12]
  growth, % of control at 10 µM: 84.6%
786-0
  growth, % of control at 10 µM: 96.7%
SK-MEL-2
  growth, % of control at 10 µM: 106%
MDA-MB-231
  growth, % of control at 10 µM: 103%
[13]
  growth, % of control at 10 µM: 119%
A549
  growth, % of control at 10 µM: 92.1%
[14]
  growth, % of control at 10 µM: 115%
[15]
  growth, % of control at 10 µM: 101%
[16]
  growth, % of control at 10 µM: 101%
[17]
  growth, % of control at 10 µM: 96.4%
SK-MEL-28
  growth, % of control at 10 µM: 113%
[18]
  growth, % of control at 10 µM: 101%
NCI-H23
  growth, % of control at 10 µM: 106%
[19]
  growth, % of control at 10 µM: 67.7%
[20]
  growth, % of control at 10 µM: 98.5%
HT-29
  growth, % of control at 10 µM: 102%
[21]
  growth, % of control at 10 µM: 101%
K562
  growth, % of control at 10 µM: 105%
MDA-MB-435
  growth, % of control at 10 µM: 107%

## COc1cc(/C(C#N)=C/c2ccc3c(c2)OCCO3)cc(OC)c1OC
[1]
  growth, % of control at 10 µM: 2.5%
[2]
  growth, % of control at 10 µM: 10.4%
[3]
  growth, % of control at 10 µM: 45.4%
A498
  growth, % of control at 10 µM: -11%
[4]
  growth, % of control at 10 µM: -12.3%
[5]
  growth, % of control at 10 µM: 24.7%
SK-MEL-5
  growth, % of control at 10 µM: -38%
NCI-H322M
  growth, % of control at 10 µM: 24.2%
NCI-H226
  growth, % of control at 10 µM: 43.9%
[6]
  growth, % of control at 10 µM: 20%
[7]
  growth, % of control at 10 µM: 16.5%
M14
  growth, % of control at 10 µM: 5.7%
ACHN
  growth, % of control at 10 µM: 34.4%
[8]
  growth, % of control at 10 µM: -17.2%
[9]
  growth, % of control at 10 µM: 25.2%
SR
  growth, % of control at 10 µM: -11%
NCI-H460
  growth, % of control at 10 µM: 5.2%
[10]
  growth, % of control at 10 µM: 44.9%
[11]
  growth, % of control at 10 µM: 40.8%
SN12C
  growth, % of control at 10 µM: 34.5%
KM12
  growth, % of control at 10 µM: 2%
[12]
  growth, % of control at 10 µM: 23.9%
786-0
  growth, % of control at 10 µM: 14.8%
SK-MEL-2
  growth, % of control at 10 µM: 24.1%
MDA-MB-231
  growth, % of control at 10 µM: 13.7%
[13]
  growth, % of control at 10 µM: 18.7%
A549
  growth, % of control at 10 µM: 21.1%
[14]
  growth, % of control at 10 µM: 49.1%
[15]
  growth, % of control at 10 µM: -8%
[16]
  growth, % of control at 10 µM: 41.8%
[17]
  growth, % of control at 10 µM: 25.5%
SK-MEL-28
  growth, % of control at 10 µM: 63%
[18]
  growth, % of control at 10 µM: 51.2%
NCI-H23
  growth, % of control at 10 µM: 20.7%
[19]
  growth, % of control at 10 µM: 17.1%
[20]
  growth, % of control at 10 µM: 6.7%
HT-29
  growth, % of control at 10 µM: 0.4%
[21]
  growth, % of control at 10 µM: -74.4%
K562
  growth, % of control at 10 µM: 7.5%
MDA-MB-435
  growth, % of control at 10 µM: -22.2%
